Reference: paper PMC5218480 (PLoS ONE, 2017)

System: MV-4-11 cells
Experiment: Gene expression microarray analysis (Affymetrix PrimeView) and GSEA
Type: cell-based, human
Parameters: RFU PODN (11730768_x_at) / Fold change /veh PODN (11730768_x_at) / RFU LINC00158 (11744669_a_at) / Fold change /veh LINC00158 (11744669_a_at) / RFU DUSP10 (11751237_a_at) / Fold change /veh DUSP10 (11751237_a_at) / RFU ID3 (11757404_x_at) / Fold change /veh ID3 (11757404_x_at) / RFU PLEKHG5 (11737974_s_at) / Fold change /veh PLEKHG5 (11737974_s_at) / RFU LRRC4B (11730491_at) / Fold change /veh LRRC4B (11730491_at) / RFU GIMAP4 (11747438_a_at) / Fold change /veh GIMAP4 (11747438_a_at) / RFU KRT8 (11758183_x_at) / Fold change /veh KRT8 (11758183_x_at) / RFU CNN1 (11734310_a_at) / Fold change /veh CNN1 (11734310_a_at) / RFU VPS37D (11726825_at) / Fold change /veh VPS37D (11726825_at) / RFU C10orf10 (11716522_x_at) / Fold change /veh C10orf10 (11716522_x_at) / RFU KIR2DL2 /// KIR2DL4 /// KIR2DL5A /// KIR2DL5B /// KIR2DS1 /// KIR2DS2 /// KIR2DS3 /// KIR2DS4 /// KIR3DL3 /// KIR3DL3 /// KIR3DS1 (11738374_at) / Fold change /veh KIR2DL2 /// KIR2DL4 /// KIR2DL5A /// KIR2DL5B /// KIR2DS1 /// KIR2DS2 /// KIR2DS3 /// KIR2DS4 /// KIR3DL3 /// KIR3DL3 /// KIR3DS1 (11738374_at) / RFU C1QL1 (11718748_at) / Fold change /veh C1QL1 (11718748_at) / RFU TMPRSS4 (11747572_a_at) / Fold change /veh TMPRSS4 (11747572_a_at) / RFU HAMP (11756126_x_at) / Fold change /veh HAMP (11756126_x_at) / RFU RNFT2 (11725882_a_at) / Fold change /veh RNFT2 (11725882_a_at) / RFU NR4A2 (11747474_a_at) / Fold change /veh NR4A2 (11747474_a_at) / RFU ABCC12 (11746883_a_at) / Fold change /veh ABCC12 (11746883_a_at) / RFU TMEM136 (11760407_x_at) / Fold change /veh TMEM136 (11760407_x_at) / RFU CLDN22 /// WWC2 (11732394_at) / Fold change /veh CLDN22 /// WWC2 (11732394_at) / RFU HLA-DPB1 (11760878_x_at) / Fold change /veh HLA-DPB1 (11760878_x_at) / RFU SPINT1 (11716480_a_at) / Fold change /veh SPINT1 (11716480_a_at) / RFU GAP43 (11754022_s_at) / Fold change /veh GAP43 (11754022_s_at) / RFU A4GNT (11735810_at) / Fold change /veh A4GNT (11735810_at) / RFU PRB3 (11715151_x_at) / Fold change /veh PRB3 (11715151_x_at) / RFU TUBB4B (11761932_at) / Fold change /veh TUBB4B (11761932_at) / RFU CAPN14 (11732068_a_at) / Fold change /veh CAPN14 (11732068_a_at) / RFU TMCC2 (11721928_a_at) / Fold change /veh TMCC2 (11721928_a_at) / RFU IRGQ (11745062_a_at) / Fold change /veh IRGQ (11745062_a_at) / RFU FAM174B (11720279_a_at) / Fold change /veh FAM174B (11720279_a_at) / RFU TMPRSS4 (11748680_a_at) / Fold change /veh TMPRSS4 (11748680_a_at) / RFU FAM212B (11763350_a_at) / Fold change /veh FAM212B (11763350_a_at) / RFU PLEKHG5 (11743358_a_at) / Fold change /veh PLEKHG5 (11743358_a_at) / RFU ZSCAN30 (11745921_a_at) / Fold change /veh ZSCAN30 (11745921_a_at) / RFU CMKLR1 (11741424_a_at) / Fold change /veh CMKLR1 (11741424_a_at) / RFU LOC101060620 /// MAPK8IP1 (11723275_at) / Fold change /veh LOC101060620 /// MAPK8IP1 (11723275_at) / RFU SPTSSB (11747773_x_at) / Fold change /veh SPTSSB (11747773_x_at) / RFU PRSS12 (11739890_at) / Fold change /veh PRSS12 (11739890_at) / RFU BIN1 (11741810_x_at) / Fold change /veh BIN1 (11741810_x_at) / RFU WNT11 (11732464_a_at) / Fold change /veh WNT11 (11732464_a_at) / RFU C10orf10 (11716521_a_at) / Fold change /veh C10orf10 (11716521_a_at) / RFU C5orf56 (11738089_at) / Fold change /veh C5orf56 (11738089_at) / RFU CYB561 (11721691_x_at) / Fold change /veh CYB561 (11721691_x_at) / RFU ANKRD19P (11752326_a_at) / Fold change /veh ANKRD19P (11752326_a_at) / RFU OR2T12 /// OR2T33 /// OR2T8 (11738714_s_at) / Fold change /veh OR2T12 /// OR2T33 /// OR2T8 (11738714_s_at) / RFU VCAN (11748164_a_at) / Fold change /veh VCAN (11748164_a_at) / RFU JSRP1 (11732532_at) / Fold change /veh JSRP1 (11732532_at) / RFU KRTAP10-11 (11738290_x_at) / Fold change /veh KRTAP10-11 (11738290_x_at) / RFU MYO3A (11730013_a_at) / Fold change /veh MYO3A (11730013_a_at) / RFU EBF3 (11725865_a_at) / Fold change /veh EBF3 (11725865_a_at) / RFU CAMK2N1 (11719241_x_at) / Fold change /veh CAMK2N1 (11719241_x_at) / RFU C5orf56 (11738088_a_at) / Fold change /veh C5orf56 (11738088_a_at) / RFU OLFML3 (11715873_a_at) / Fold change /veh OLFML3 (11715873_a_at) / RFU LOC100653217 /// NTM (11731650_a_at) / Fold change /veh LOC100653217 /// NTM (11731650_a_at) / RFU MAPK11 (11762145_a_at) / Fold change /veh MAPK11 (11762145_a_at) / RFU FIZ1 (11724087_x_at) / Fold change /veh FIZ1 (11724087_x_at) / RFU OASL (11726364_x_at) / Fold change /veh OASL (11726364_x_at) / RFU SOX15 (11748057_x_at) / Fold change /veh SOX15 (11748057_x_at) / RFU CD79A (11719716_a_at) / Fold change /veh CD79A (11719716_a_at) / RFU HIST1H1D (11736915_at) / Fold change /veh HIST1H1D (11736915_at) / RFU CASKIN2 (11723855_a_at) / Fold change /veh CASKIN2 (11723855_a_at) / RFU LOC730098 (11760151_x_at) / Fold change /veh LOC730098 (11760151_x_at) / RFU OR4N2 (11742367_at) / Fold change /veh OR4N2 (11742367_at) / RFU PRRT2 (11749266_a_at) / Fold change /veh PRRT2 (11749266_a_at) / RFU SNX32 (11753110_a_at) / Fold change /veh SNX32 (11753110_a_at) / RFU CDHR5 (11726645_a_at) / Fold change /veh CDHR5 (11726645_a_at) / RFU RCAN1 (11760418_a_at) / Fold change /veh RCAN1 (11760418_a_at) / RFU FAM167A (11723789_a_at) / Fold change /veh FAM167A (11723789_a_at) / RFU FAM26E (11764081_at) / Fold change /veh FAM26E (11764081_at) / RFU ISYNA1 (11749810_s_at) / Fold change /veh ISYNA1 (11749810_s_at) / RFU ACY1 (11761880_at) / Fold change /veh ACY1 (11761880_at) / RFU 11764098_at / Fold change /veh 11764098_at / RFU SAMD14 (11745864_x_at) / Fold change /veh SAMD14 (11745864_x_at) / RFU NPB (11741838_a_at) / Fold change /veh NPB (11741838_a_at) / RFU TMPRSS6 (11731388_a_at) / Fold change /veh TMPRSS6 (11731388_a_at) / RFU KRTAP10-2 (11738614_at) / Fold change /veh KRTAP10-2 (11738614_at) / RFU ARHGAP8 /// PRR5-ARHGAP8 (11727945_x_at) / Fold change /veh ARHGAP8 /// PRR5-ARHGAP8 (11727945_x_at) / RFU KRTAP5-7 /// NADSYN1 (11734609_at) / Fold change /veh KRTAP5-7 /// NADSYN1 (11734609_at) / RFU RASL12 (11751679_a_at) / Fold change /veh RASL12 (11751679_a_at) / RFU CDKN2B (11736163_a_at) / Fold change /veh CDKN2B (11736163_a_at) / RFU PRF1 (11729649_at) / Fold change /veh PRF1 (11729649_at) / RFU, ZNF638 /// ZNF638-IT1 / Fold change vs veh, ZNF638 /// ZNF638-IT1 / RFU, PANK3 / Fold change vs veh, PANK3 / RFU, SH3YL1 / Fold change vs veh, SH3YL1 / RFU, ZEB2 / Fold change vs veh, ZEB2 / RFU, NRIP1 / Fold change vs veh, NRIP1 / RFU, PTTG1IP / Fold change vs veh, PTTG1IP / RFU, CAPN2 / Fold change vs veh, CAPN2 / RFU, MED14 / Fold change vs veh, MED14 / RFU, SNORA58 / Fold change vs veh, SNORA58 / RFU, C1orf63 / Fold change vs veh, C1orf63 / RFU, LRRFIP1 / Fold change vs veh, LRRFIP1 / RFU, NDUFAF7 / Fold change vs veh, NDUFAF7 / RFU, SLC12A2 / Fold change vs veh, SLC12A2 / RFU, IBTK / Fold change vs veh, IBTK / RFU, ESF1 / Fold change vs veh, ESF1 / Fold change vs veh, TMEM50B / RFU, TAOK1 / Fold change vs veh, TAOK1 / RFU, ACBD3 / Fold change vs veh, ACBD3 / RFU, TMA16 / Fold change vs veh, TMA16 / RFU, RWDD3 / Fold change vs veh, RWDD3 / RFU, BCAT1 / Fold change vs veh, BCAT1 / RFU, EDEM3 / Fold change vs veh, EDEM3 / RFU, TMEM33 / Fold change vs veh, TMEM33 / RFU, WDR75 / Fold change vs veh, WDR75 / RFU, AHCTF1 / Fold change vs veh, AHCTF1 / RFU, TFRC / Fold change vs veh, TFRC / RFU, ZDHHC17 / Fold change vs veh, ZDHHC17 / RFU, NOM1 / Fold change vs veh, NOM1 / RFU, ARL8B / Fold change vs veh, ARL8B / RFU, ZBTB11 / Fold change vs veh, ZBTB11 / RFU, TAMM41 / Fold change vs veh, TAMM41 / RFU, KIAA1704 /// LOC100996395 / Fold change vs veh, KIAA1704 /// LOC100996395 / RFU, ING1 / Fold change vs veh, ING1 / RFU, TRMT61B / Fold change vs veh, TRMT61B / RFU, FUBP3 / Fold change vs veh, FUBP3 / RFU, TP53 / Fold change vs veh, TP53 / RFU, TNKS2 / Fold change vs veh, TNKS2 / RFU, ZFP14 / Fold change vs veh, ZFP14 / RFU, ACTR2 / Fold change vs veh, ACTR2 / RFU, PPP3R1 / Fold change vs veh, PPP3R1 / RFU, PIK3R1 / Fold change vs veh, PIK3R1 / RFU, HNRNPA1 / Fold change vs veh, HNRNPA1 / RFU, RNF170 / Fold change vs veh, RNF170 / RFU, ZNF28 / Fold change vs veh, ZNF28 / RFU, RNGTT / Fold change vs veh, RNGTT / RFU, OGT / Fold change vs veh, OGT / RFU, BRD1 / Fold change vs veh, BRD1 / RFU, MARS / Fold change vs veh, MARS / RFU, ZNF655 / Fold change vs veh, ZNF655 / RFU, FAHD1 / Fold change vs veh, FAHD1 / RFU, BDP1 / Fold change vs veh, BDP1 / RFU, LRRCC1 / Fold change vs veh, LRRCC1 / RFU, ARID1A / Fold change vs veh, ARID1A / RFU, ZNF146 / Fold change vs veh, ZNF146 / RFU, ZNF330 / Fold change vs veh, ZNF330 / RFU, GPN3 / Fold change vs veh, GPN3 / RFU, C9orf123 / Fold change vs veh, C9orf123 / RFU, N4BP2L2 / Fold change vs veh, N4BP2L2 / RFU, ARFIP1 / Fold change vs veh, ARFIP1 / RFU, FAM179B / Fold change vs veh, FAM179B / RFU, BCL10 / Fold change vs veh, BCL10 / RFU, UHRF1BP1L / Fold change vs veh, UHRF1BP1L / RFU, BET1 / Fold change vs veh, BET1 / RFU, CNOT2 / Fold change vs veh, CNOT2 / RFU, ZNF268 / Fold change vs veh, ZNF268 / Fold change vs veh, ZNF507 / RFU, DGCR2 / Fold change vs veh, DGCR2 / RFU, WDSUB1 / Fold change vs veh, WDSUB1 / Fold change vs veh, HSP90B1 /// MIR3652 / RFU, ADSS / Fold change vs veh, ADSS / RFU, GK / Fold change vs veh, GK / RFU, ZNF148 / Fold change vs veh, ZNF148 / RFU, TAF9 / Fold change vs veh, TAF9 / RFU, SLC1A5 / Fold change vs veh, SLC1A5 / RFU, SLMO2 / Fold change vs veh, SLMO2 / RFU, ABCC4 / Fold change vs veh, ABCC4 / RFU, LOC101060439 /// RAP1B / Fold change vs veh, LOC101060439 /// RAP1B / RFU, RFX7 / Fold change vs veh, RFX7 / RFU, GTPBP10 / Fold change vs veh, GTPBP10 / RFU, CNEP1R1 / Fold change vs veh, CNEP1R1 / RFU, BIVM-ERCC5 /// ERCC5 / Fold change vs veh, BIVM-ERCC5 /// ERCC5 / RFU, ILF3 / Fold change vs veh, ILF3 / RFU 11762660_at / Fold change /veh 11762660_at / RFU VCAN (11757783_s_at) / Fold change /veh VCAN (11757783_s_at) / RFU DDX43 (11728927_at) / Fold change /veh DDX43 (11728927_at) / RFU KRT8 (11758188_x_at) / Fold change /veh KRT8 (11758188_x_at) / RFU NKD1 (11759106_at) / Fold change /veh NKD1 (11759106_at) / RFU SRD5A1 (11742802_a_at) / Fold change /veh SRD5A1 (11742802_a_at) / RFU TPSAB1 /// TPSB2 (11721975_s_at) / Fold change /veh TPSAB1 /// TPSB2 (11721975_s_at) / RFU GSTM3 (11746129_a_at) / Fold change /veh GSTM3 (11746129_a_at) / RFU IL23R (11737362_x_at) / Fold change /veh IL23R (11737362_x_at) / RFU TMEM51 (11727254_a_at) / Fold change /veh TMEM51 (11727254_a_at) / RFU PIWIL2 (11732686_x_at) / Fold change /veh PIWIL2 (11732686_x_at) / RFU ORM1 (11744905_x_at) / Fold change /veh ORM1 (11744905_x_at) / RFU CCDC152 (11743942_at) / Fold change /veh CCDC152 (11743942_at) / RFU ECM1 (11717891_a_at) / Fold change /veh ECM1 (11717891_a_at) / RFU IL23R (11748794_a_at) / Fold change /veh IL23R (11748794_a_at) / RFU TNFAIP8L3 (11732012_x_at) / Fold change /veh TNFAIP8L3 (11732012_x_at) / RFU MBOAT4 (11741988_at) / Fold change /veh MBOAT4 (11741988_at) / RFU 11764193_at / Fold change /veh 11764193_at / RFU TMEM53 (11763286_at) / Fold change /veh TMEM53 (11763286_at) / RFU MAGEB2 (11727129_at) / Fold change /veh MAGEB2 (11727129_at) / RFU TMEM200A (11744735_a_at) / Fold change /veh TMEM200A (11744735_a_at) / RFU CCDC152 (11751479_a_at) / Fold change /veh CCDC152 (11751479_a_at) / RFU FAM211A (11726209_a_at) / Fold change /veh FAM211A (11726209_a_at) / RFU RGS16 (11746705_a_at) / Fold change /veh RGS16 (11746705_a_at) / RFU VCAN (11755009_s_at) / Fold change /veh VCAN (11755009_s_at) / RFU RHOB (11743442_s_at) / Fold change /veh RHOB (11743442_s_at) / RFU RGS16 (11720943_a_at) / Fold change /veh RGS16 (11720943_a_at) / RFU RGS16 (11720944_at) / Fold change /veh RGS16 (11720944_at) / RFU, VPS4B / Fold change vs veh, VPS4B / RFU, CREB1 / Fold change vs veh, CREB1 / RFU, DNAJC13 / Fold change vs veh, DNAJC13 / RFU, GNAQ / Fold change vs veh, GNAQ / RFU, CDK5R1 / Fold change vs veh, CDK5R1 / RFU, ZRANB3 / Fold change vs veh, ZRANB3 / RFU, CUL4A / Fold change vs veh, CUL4A / RFU, CCNY / Fold change vs veh, CCNY / RFU, UFL1 / Fold change vs veh, UFL1 / RFU, COG3 / Fold change vs veh, COG3 / RFU, DIAPH2 / Fold change vs veh, DIAPH2 / RFU, SKA2 / Fold change vs veh, SKA2 / RFU, AFF3 / Fold change vs veh, AFF3 / RFU, LMF1 / Fold change vs veh, LMF1 / RFU, IPO11 / Fold change vs veh, IPO11 / RFU, DFFB / Fold change vs veh, DFFB / RFU, FOXP1 / Fold change vs veh, FOXP1 / RFU, CARD8 / Fold change vs veh, CARD8 / RFU, STRN3 / Fold change vs veh, STRN3 / RFU, ADK / Fold change vs veh, ADK / RFU, RASSF2 / Fold change vs veh, RASSF2 / RFU, WIPF1 / Fold change vs veh, WIPF1 / RFU, LARP1B / Fold change vs veh, LARP1B / RFU, RASA1 / Fold change vs veh, RASA1 / RFU, RB1 / Fold change vs veh, RB1 / RFU, PPFIA1 / Fold change vs veh, PPFIA1 / RFU, MAT2A / Fold change vs veh, MAT2A / RFU, CCT5 / Fold change vs veh, CCT5 / RFU, WDR92 / Fold change vs veh, WDR92 / RFU, CUX1 / Fold change vs veh, CUX1 / RFU, TTC7A / Fold change vs veh, TTC7A / RFU, TMEM135 / Fold change vs veh, TMEM135 / RFU, DEPTOR / Fold change vs veh, DEPTOR / RFU, CPM / Fold change vs veh, CPM / RFU, DNAJB6 / Fold change vs veh, DNAJB6 / RFU, CACNA2D3 / Fold change vs veh, CACNA2D3 / RFU, DTX4 / Fold change vs veh, DTX4 / RFU, TFCP2 / Fold change vs veh, TFCP2 / RFU, GMCL1 /// GMCL1P1 / Fold change vs veh, GMCL1 /// GMCL1P1 / RFU, AEBP2 / Fold change vs veh, AEBP2 / RFU, SNHG1 /// SNORD22 /// SNORD25 /// SNORD26 /// SNORD27 /// SNORD28 /// SNORD29 /// SNORD31 / Fold change vs veh, SNHG1 /// SNORD22 /// SNORD25 /// SNORD26 /// SNORD27 /// SNORD28 /// SNORD29 /// SNORD31 / Fold change (Aza/veh), C12orf56 (ProbeSet 11735607_a_at) / Fold change (ACY-1035/veh), C12orf56 (ProbeSet 11735607_a_at) / Fold change (Aza/veh), FGFR1OP (ProbeSet 11751329_s_at) / Fold change (ACY-1035/veh), FGFR1OP (ProbeSet 11751329_s_at) / Fold change (Aza/veh), VPS36 (ProbeSet 11739960_a_at) / Fold change (ACY-1035/veh), VPS36 (ProbeSet 11739960_a_at) / RFU SYPL1 (11715823_x_at) / Fold change /veh SYPL1 (11715823_x_at) / RFU IGFBP7 (11715501_s_at) / Fold change /veh IGFBP7 (11715501_s_at) / RFU REEP3 (11722064_at) / Fold change /veh REEP3 (11722064_at) / RFU IGLL1 (11728026_x_at) / Fold change /veh IGLL1 (11728026_x_at): dose or concentration left out as unconfirmed
Details: ProbeSet 11719632_a_at; LIST B

SMILES: Nc1ncn([C@@H]2O[C@H](CO)[C@@H](O)[C@H]2O)c(=O)n1 [azacitidine]
- RFU, ABCC4: 39.11 RFU
